In article PMC11350787, “Antimicrobial Properties and Cytotoxicity of LL-37-Derived Synthetic Peptides to Treat Orthopedic Infections” (Antibiotics, 2024):
Values after ≈ are worked out from the molar mass of the structure shown.

Columns and labels:
[1] = tested on: S. epidermidis ATCC 35984 biofilm; experiment: Biofilm removal activity (CLSM, LIVE/DEAD); assay type: cell-based; details: 72-h-old biofilm; 18 h; vancomycin 0.5%; p < 0.01 vs FK-16
Procedure: (§1) Rough titanium disks (Adler Ortho, Cormano, Milan, Italy) were autoclaved at 121°C for 15 min and placed into sterile 6-well plates. S. epidermidis ATCC 35984, S. epidermidis GOI1153754-03-14, S. aureus ATCC 49,230 and S. aureus Sau89 were grown overnight in BHI broth at 37 °C. The culture was diluted up to 1.5 × 10^6 in BHI broth and 6 mL of each culture was inoculated in the disk containing wells. Two disks were inoculated with sterile BHI as sterility control. All the plates were incubated at 37 °C for 72 h. After incubation, the disks were gently washed with sterile saline to remove unattached cells. Each disk was treated with either vancomycin at 0.5% (Pharmatex, Milan, Italy), GF-17 (18.75 µg/mL) or FK-16 (75 µg/mL) for 18 h. Two disks for each bacterial inoculum were untreated as control. Subsequently, disks were gently washed with sterile saline solution and stained with Filmtracer^TM LIVE/DEAD^TM Biofilm Viability Kit (Thermo Fisher Diagnostics, Monza, Italy), according to the manufacturer’s instructions, washed again with sterile saline and observed with an upright TCS SP8 (Leica Microsystems CMS GmbH, Mannheim, Germany) using a 20X dry objective (HC PL FLUOTAR 20X/0.50 DRY). The images were acquired with Las X (Leica Microsystems CMS GmbH, Mannheim, Germany) and analyzed with Fiji software (Fiji, ImageJ version 1.53t, Wayne Rasband National Institutes of Health). For each channel, the biofilm area was measured after setting the threshold at 14 for the red channel and 20 for the green channel. The biofilm data were expressed as the percentage of red signal (dead cells) relative to the green channel (live cells). Finally, the data were normalized against the control, which was set to 1.

[2] = tested on: S. aureus ATCC 49230 biofilm; experiment: Biofilm removal activity (CLSM, LIVE/DEAD); assay type: cell-based; details: 72-h-old biofilm; 18 h; vancomycin 0.5% vs FK-16 75 µg/mL; p < 0.01
Procedure: as §1

[3] = tested on: S. epidermidis GOI1153754-03-14 biofilm; experiment: Biofilm removal activity (CLSM, LIVE/DEAD); assay type: cell-based; details: titanium disks; 18 h treatment; FK-16 75 µg/mL, GF-17 18.75 µg/mL, vancomycin 0.5%
Procedure: as §1

S. aureus Sau89 biofilm = experiment: Biofilm removal activity (CLSM, LIVE/DEAD); assay type: cell-based; details: 72-h-old biofilm; 18 h; vancomycin 0.5% vs FK-16 75 µg/mL; p < 0.05
Procedure: as §1

P. aeruginosa ATCC 27853 = experiment: microbe, parasite or virus in culture
Description: (§2) A total of 18 bacterial strains relevant to orthopedic infections were used for microbiological tests, including 8 ATCC (American Type Culture Collection, ATCC, Manassas, VA, USA) and 10 clinical isolates (CI) from the Laboratory of Clinical Chemistry and Microbiology, IRCCS Ospedale Galeazzi–Sant’Ambrogio of Milan (Italy) strain collection. The ATCC strains were used for the first screening (MIC/MBC) of all the AMPs produced, while the clinical isolates were used for further MIC/MBC assays on selected AMPs. Among CI, S. epidermidis GOI1153754-03-14 has been already characterized and used in previous studies. All the strains were stocked at −80°C and working stocks were stored at −20 °C. At the occurrence, the bacteria were resuscitated in Brain Hearth Infusion (BHI, Millipore, Milan, Italy) broth at 37 °C for 18 h from the working stocks.
(§3) To determine the minimum inhibitory concentration (MIC) and the minimum bactericidal concentration (MBC), ISO20776-1 and Clinical and Laboratory Standards Institute guidelines were followed. A commercial synthetic LL-37 (Aurogene, Rome, Italy) was used as the control in the MIC and MBC assays. A stock solution of each AMP was prepared at 600 µg/mL to achieve a final concentration of 300 µg/mL. […] The MIC was determined according to the aforementioned standard guidelines. The MBC was determined by plating 2 µL of culture from each well of the MIC plates on a Tryptic Soy Agar (TSA, Millipore, Milan, Italy) plate and incubated for 24 h at 37 °C. The concentration at which there was no growth was recorded as MBC. Each experiment was carried out in triplicate. Representative MIC and MBC values for vancomycin and gentamicin were assessed to offer a benchmark comparison for the AMPs. Quality control was conducted with Staphylococcus aureus ATCC 29,213 and vancomycin according to EUCAST guidelines.

S. aureus ATCC 25923 = experiment: microbe, parasite or virus in culture
Description: as §2, §3

S. aureus ATCC 43300 = experiment: microbe, parasite or virus in culture
Description: as §2, §3

[4] = tested on: S. epidermidis GOI1153754-03-14 (CI); experiment: microbe, parasite or virus in culture
Description: as §2, §3

E. coli ATCC 25922 = experiment: microbe, parasite or virus in culture
Description: as §2, §3

For `CN[C@H](CC(C)C)C(=O)N[C@H]1C(=O)N[C@@H](CC(N)=O)C(=O)N[C@H]2C(=O)N[C@H]3C(=O)N[C@H](C(=O)N[C@H](C(=O)O)c4cc(O)cc(O)c4-c4cc3ccc4O)[C@H](O)c3ccc(c(Cl)c3)Oc3cc2cc(c3O[C@@H]2O[C@H](CO)[C@@H](O)[C@H](O)[C@H]2O[C@H]2C[C@](C)(N)[C@H](O)[C@H](C)O2)Oc2ccc(cc2Cl)[C@H]1O` [Van, vancomycin], the “Dead bacteria in biofilm (quantitative analysis of fluorescent signals, relative mortality)” value [1] was “higher than the uninoculated control”, the “Dead bacteria in biofilm (quantitative analysis of fluorescent signals, relative mortality)” value [2] was “more dead cells compared to FK-16 treatment” and the “CLSM observation of treated 72-h-old biofilm (live green / dead red)” value [3] was “less disruptive effect”. The “Dead bacteria in biofilm (quantitative analysis of fluorescent signals, relative mortality)” value (S. aureus Sau89 biofilm) was “more dead cells compared to FK-16 treatment”, the “Susceptibility category by MIC (EUCAST clinical breakpoints tables, v. 14)” value (P. aeruginosa ATCC 27853; P. aeruginosa 27853) was “R” and the MBC (P. aeruginosa ATCC 27853; Pseudomonas aeruginosa, ATCC27853, 24 h, read-out: Minimum Bactericidal Concentration (MBC)) was > 40 µg/mL. For the same molecule, the MIC (P. aeruginosa ATCC 27853; Pseudomonas aeruginosa, ATCC27853, read-out: Minimum Inhibitory Concentration (MIC)) was > 40 µg/mL, the “Susceptibility category by MIC (EUCAST clinical breakpoints tables, v. 14)” value (S. aureus ATCC 25923; S. aureus 25923) was “S” and the MBC (S. aureus ATCC 25923; Staphylococcus aureus, ATCC25923, 24 h, read-out: Minimum Bactericidal Concentration (MBC)) was 0.6 µg/mL (≈ 0.414 µM). The MIC (S. aureus ATCC 25923; Staphylococcus aureus, ATCC25923, read-out: Minimum Inhibitory Concentration (MIC)) was 0.6 µg/mL (≈ 0.414 µM), the “Susceptibility category by MIC (EUCAST clinical breakpoints tables, version 14)” value (S. aureus ATCC 43300; S. aureus 43,300 as printed in text) was “S” and the MBC (S. aureus ATCC 43300; Staphylococcus aureus, ATCC43300, 24 h, read-out: Minimum Bactericidal Concentration (MBC)) was 0.6 µg/mL (≈ 0.414 µM). The MIC (S. aureus ATCC 43300; Staphylococcus aureus, ATCC43300, read-out: Minimum Inhibitory Concentration (MIC)) was 0.6 µg/mL (≈ 0.414 µM), the “Susceptibility category by MIC (EUCAST clinical breakpoints tables, v. 14)” value ([4]; S. epidermidis GOI1153754-03-14) was “S” and the MBC ([4]; Staphylococcus epidermidis, read-out: Minimum Bactericidal Concentration (MBC)) was 2.5 µg/mL (≈ 1.73 µM). For the same molecule, the MIC ([4]; Staphylococcus epidermidis, read-out: Minimum Inhibitory Concentration (MIC)) was 1.25 µg/mL (≈ 0.863 µM), the “Susceptibility category by MIC (EUCAST clinical breakpoints tables, v. 14)” value (E. coli ATCC 25922; E. coli 25922) was “R” and the MBC (E. coli ATCC 25922; Escherichia coli, ATCC25922, 24 h, read-out: Minimum Bactericidal Concentration (MBC)) was > 40 µg/mL. For the same molecule, the MIC (E. coli ATCC 25922; Escherichia coli, ATCC25922, read-out: Minimum Inhibitory Concentration (MIC)) was > 40 µg/mL.
